Patent publication US6355799B1, “Substituted benzene compounds, process for their preparation, and herbicidal and defoliant compositions containing them” (ISK Americas Incorporated, priority 1997, dated 2002)

How the values were obtained:
Type in all cases: in vivo
[1] = test system: sicklepod (Cassia obtusifolia, CASOB); assay: Pre-emerge test, greenhouse herbicide activity screening; conditions: pre-emerge, 14 days after application
Source text: (§1) A standard greenhouse herbicide activity screening system was used to evaluate the herbicidal efficacy and crop safety of these test compounds. Seven broadleaf weed species including redroot pigweed (Amaranthus retroflexus, AMARE, velvetleaf (Abutilon theophrasti, ABUTH), sicklepod (Cassia obtusifolia, CASOB), ivyleaf morningglory (Ipomoea hederacea, IPOHE), lambsquarters (Chenopodium album, CHEAL), common ragweed (Ambrosia artemisizfolia L., AMBEL), and cocklebur (Xanthium strumarium, XANST) were used as test species. Four grass weed species including green foxtail (Setaria viridis, SETVI), barnyardgrass (Echinochloa crus-galli, ECHCG), johnsongrass (Sorghum halepense, SORHA), and large crabgrass (Digitaria sanguinalis, DIGSA) were also used. In addition, three crop species, field corn (Zea mays L., var. Dekalb 535, CORN), soybean (Glycine max L., var. Pella 86, SOY), and is upland rice (Oryza sp., var. Tebonnet, RICE) were included.
(§2) All plants were grown in 10 cm square plastic pots which were filled with a sandy loam soil mix. For pre-emerge tests, seeds were planted one day prior to application of the test compounds. For post-emerge tests, seeds were planted 8-21 days prior to the test to allow emergence and good foliage development prior to application of the test substances. At the time of the post-emerge application, plants of all species were usually at the 2-3 leaf stage of development.
(§3) All test compounds Were dissolved in acetone and applied to the test units in a volume of 187 l /ha. Test materials were applied at rates ranging from 15 g ai/ha to 1000 g ai/ha using a track sprayer equipped with a TJ8001E even flow flat fan spray nozzle. Plants were arranged on a shelf so that the top of the canopy (post-emerge) or top of the soil surface (pre-emerge) was 40-45 cm below the nozzle. Pressurized air was used to force the test solution through the nozzle as it was mechanically advanced (via electrically driven chain drive) over the top of all test plants/pots. This application simulates a typical commercial field herbicide application.
(§4) In the post-emerge test, a commercial non-ionic surfactant was also included (0.25% v/v) to enhance wetting of the leaf surfaces of target plants. Immediately after application, test units of the pre-emerge applications were watered at the soil surface to incorporate the test materials. Subsequently, these test units were bottom-watered. Post-emerge test units were always bottom-watered.
(§5) At 14 days after application of the test materials, phytotoxicity ratings were recorded. A rating scale of 0-100 was used as previously described in Research Methods in Weed Science, 2nd edition, B. Truelove, Ed., Southern Weed Science Society, Auburn University, Auburn, Ala. 1977. Briefly, “0” corresponds to no damage and “100” corresponds to complete death of all plants in the test unit. This scale was used both to determine efficacy against weed species and damage to crop species. Herbicide activity data for various compounds of this invention, which are shown by compound No. in Tables 1-8, are shown in Tables 11 and 12.

[2] = test system: barnyardgrass (Echinochloa crus-galli, ECHCG); assay: as above; conditions: pre-emerge, 14 days after application
Source text: as §1, §2, §3, §4, §5

[3] = test system: lambsquarters (Chenopodium album, CHEAL); assay: as above; conditions: pre-emerge, 14 days after application
Source text: as §1, §2, §3, §4, §5

[4] = test system: large crabgrass (Digitaria sanguinalis, DIGSA); assay: as above; conditions: pre-emerge, 14 days after application
Source text: as §1, §2, §3, §4, §5

[5] = test system: green foxtail (Setaria viridis, SETVI); assay: as above; conditions: pre-emerge, 14 days after application
Source text: as §1, §2, §3, §4, §5

[6] = test system: velvetleaf (Abutilon theophrasti, ABUTH); assay: as above; conditions: pre-emerge, 14 days after application
Source text: as §1, §2, §3, §4, §5

[7] = test system: ivyleaf morningglory (Ipomoea hederacea, IPOHE); assay: as above; conditions: pre-emerge, 14 days after application
Source text: as §1, §2, §3, §4, §5

[8] = test system: sicklepod (Cassia obtusifolia, CASOB); assay: Post-emerge test, greenhouse herbicide activity screening; conditions: post-emerge, 14 days after application, rating scale 0-100
Source text: as §1, §2, §3, §4, §5

[9] = test system: barnyardgrass (Echinochloa crus-galli, ECHCG); assay: as above; conditions: post-emerge, 14 days after application, rating scale 0-100
Source text: as §1, §2, §3, §4, §5

[10] = test system: lambsquarters (Chenopodium album, CHEAL); assay: as above; conditions: post-emerge, 14 days after application, rating scale 0-100
Source text: as §1, §2, §3, §4, §5

[11] = test system: large crabgrass (Digitaria sanguinalis, DIGSA); assay: as above; conditions: post-emerge, 14 days after application, rating scale 0-100
Source text: as §1, §2, §3, §4, §5

[12] = test system: green foxtail (Setaria viridis, SETVI); assay: as above; conditions: post-emerge, 14 days after application, rating scale 0-100
Source text: as §1, §2, §3, §4, §5

[13] = test system: velvetleaf (Abutilon theophrasti, ABUTH); assay: as above; conditions: post-emerge, 14 days after application, rating scale 0-100
Source text: as §1, §2, §3, §4, §5

[14] = test system: redroot pigweed (Amaranthus retroflexus, AMARE); assay: as above; conditions: post-emerge, 14 days after application
Source text: as §1, §2, §3, §4, §5

[15] = test system: ivyleaf morningglory (Ipomoea hederacea, IPOHE); assay: as above; conditions: post-emerge, 14 days after application, rating scale 0-100
Source text: as §1, §2, §3, §4, §5

[16] = test system: field corn (Zea mays L., var. Dekalb 535, CORN); assay: Post-emerge test, crop safety; conditions: post-emerge, 14 days after application, rating scale 0-100
Source text: as §1, §2, §3, §4, §5

[17] = test system: upland rice (Oryza sp., var. Tebonnet, RICE); assay: Post-emerge test, crop safety; conditions: post-emerge, 14 days after application, rating scale 0-100
Source text: as §1, §2, §3, §4, §5

[18] = test system: redroot pigweed (Amaranthus retroflexus, AMARE); assay: Pre-emerge test, greenhouse herbicide activity screening; conditions: pre-emerge, 14 days after application
Source text: as §1, §2
as §3, with “Test materials were applied at rates ranging from 15 g ai/ha to 1000 g ai/ha using a track sprayer equipped with a TJ8001E even flow flat fan spray nozzle.” left out
as §4, §5

[19] = test system: field corn (Zea mays L., var. Dekalb 535, CORN); assay: Pre-emerge test, crop safety; conditions: pre-emerge, 14 days after application; for phytotoxicity rating CORN: rating scale 0-100; for phytotoxicity rating CORN (crop damage): scale 0-100
Source text: as §1, §2, §3, §4, §5

[20] = test system: upland rice (Oryza sp., var. Tebonnet, RICE); assay: Pre-emerge test, crop safety; conditions: pre-emerge, 14 days after application; for phytotoxicity rating RICE: rating scale 0-100; for phytotoxicity rating RICE (crop damage): scale 0-100
Source text: as §1, §2, §3, §4, §5

[21] = 250 g ai/ha, rating scale 0-100

## COc1c(Cl)cc(F)c(-n2c(=O)cc(C(F)(F)F)n(C)c2=O)c1NN=Cc1ccc(F)cc1F [15-20]
[1]; 63 g ai/ha, rating scale 0-100
  phytotoxicity rating CASOB: 60
[1]; [21]
  phytotoxicity rating CASOB: 100
[2]; 63 g ai/ha, rating scale 0-100
  phytotoxicity rating ECHCG: 50
[2]; [21]
  phytotoxicity rating ECHCG: 100
[3]; 63 g ai/ha, rating scale 0-100
  phytotoxicity rating CHEAL: 100
[3]; [21]
  phytotoxicity rating CHEAL: 100
[4]; 63 g ai/ha, rating scale 0-100
  phytotoxicity rating DIGSA: 100
[4]; [21]
  phytotoxicity rating DIGSA: 100
[5]; 63 g ai/ha, rating scale 0-100
  phytotoxicity rating SETVI: 100
[5]; [21]
  phytotoxicity rating SETVI: 100
[6]; 63 g ai/ha, rating scale 0-100
  phytotoxicity rating ABUTH: 100
[6]; [21]
  phytotoxicity rating ABUTH: 100
[7]; 63 g ai/ha, rating scale 0-100
  phytotoxicity rating IPOHE: 80
[7]; [21]
  phytotoxicity rating IPOHE: 80
[8]; 63 g ai/ha
  Post-emerge Herbicidal Activity CASOB (phytotoxicity rating): 80
[8]; 250 g ai/ha
  Post-emerge Herbicidal Activity CASOB (phytotoxicity rating): 100
[9]; 63 g ai/ha
  Post-emerge Herbicidal Activity ECHCG (phytotoxicity rating): 50
[9]; 250 g ai/ha
  Post-emerge Herbicidal Activity ECHCG (phytotoxicity rating): 100
[10]; 63 g ai/ha
  Post-emerge Herbicidal Activity CHEAL (phytotoxicity rating): 100
[10]; 250 g ai/ha
  Post-emerge Herbicidal Activity CHEAL (phytotoxicity rating): 100
[11]; 63 g ai/ha
  Post-emerge Herbicidal Activity DIGSA (phytotoxicity rating): 30
[11]; 250 g ai/ha
  Post-emerge Herbicidal Activity DIGSA (phytotoxicity rating): 90
[12]; 63 g ai/ha
  Post-emerge Herbicidal Activity SETVI (phytotoxicity rating): 80
[12]; 250 g ai/ha
  Post-emerge Herbicidal Activity SETVI (phytotoxicity rating): 100
[13]; 63 g ai/ha
  Post-emerge Herbicidal Activity ABUTH (phytotoxicity rating): 100
[13]; 250 g ai/ha
  Post-emerge Herbicidal Activity ABUTH (phytotoxicity rating): 100
[14]; 63 g ai/ha, rating scale 0-100 (0 no damage, 100 complete death)
  Post-emerge Herbicidal Activity AMARE (phytotoxicity rating): 100
[14]; [21]
  Post-emerge Herbicidal Activity AMARE (phytotoxicity rating): 100
[15]; 63 g ai/ha
  Post-emerge Herbicidal Activity IPOHE (phytotoxicity rating): 100
[15]; 250 g ai/ha
  Post-emerge Herbicidal Activity IPOHE (phytotoxicity rating): 100
[16]; 63 g ai/ha
  Post-emerge Herbicidal Activity CORN (crop damage rating): 40
[16]; 250 g ai/ha
  Post-emerge Herbicidal Activity CORN (crop damage rating): 85
[17]; 63 g ai/ha
  Post-emerge Herbicidal Activity RICE (crop damage rating): 35
[17]; 250 g ai/ha
  Post-emerge Herbicidal Activity RICE (crop damage rating): 80
[18]; 63 g ai/ha, rating scale 0-100
  phytotoxicity rating AMARE: 100
[18]; [21]
  phytotoxicity rating AMARE: 100
[19]; 63 g ai/ha
  phytotoxicity rating CORN: 65
[19]; 250 g ai/ha
  phytotoxicity rating CORN: 95
[20]; 63 g ai/ha
  phytotoxicity rating RICE: 70
[20]; 250 g ai/ha
  phytotoxicity rating RICE: 100

## COc1c(Cl)cc(F)c(-n2c(=O)cc(C(F)(F)F)n(N)c2=O)c1NC(=O)COCc1ccccc1 [2-187]
[1]; 63 g ai/ha, scale 0-100
  phytotoxicity rating CASOB: 60
[1]; 250 g ai/ha, scale 0-100
  phytotoxicity rating CASOB: 100
[2]; 63 g ai/ha, scale 0-100
  phytotoxicity rating ECHCG: 20
[2]; 250 g ai/ha, scale 0-100
  phytotoxicity rating ECHCG: 60
[3]; 63 g ai/ha, scale 0-100
  phytotoxicity rating CHEAL: 100
[3]; 250 g ai/ha, scale 0-100
  phytotoxicity rating CHEAL: 100
[4]; 63 g ai/ha, scale 0-100
  phytotoxicity rating DIGSA: 90
[4]; 250 g ai/ha, scale 0-100
  phytotoxicity rating DIGSA: 100
[5]; 63 g ai/ha, scale 0-100
  phytotoxicity rating SETVI: 50
[5]; 250 g ai/ha, scale 0-100
  phytotoxicity rating SETVI: 100
[6]; 63 g ai/ha, scale 0-100
  phytotoxicity rating ABUTH: 100
[6]; 250 g ai/ha, scale 0-100
  phytotoxicity rating ABUTH: 100
[7]; 63 g ai/ha, scale 0-100
  phytotoxicity rating IPOHE: 75
[7]; 250 g ai/ha, scale 0-100
  phytotoxicity rating IPOHE: 100
[8]; 63 g ai/ha
  CASOB phytotoxicity rating: 70
[8]; 250 g ai/ha
  CASOB phytotoxicity rating: 100
[9]; 63 g ai/ha
  ECHCG phytotoxicity rating: 20
[9]; 250 g ai/ha
  ECHCG phytotoxicity rating: 40
[10]; 63 g ai/ha
  CHEAL phytotoxicity rating: 100
[10]; 250 g ai/ha
  CHEAL phytotoxicity rating: 100
[11]; 63 g ai/ha
  DIGSA phytotoxicity rating: 10
[11]; 250 g ai/ha
  DIGSA phytotoxicity rating: 40
[12]; 63 g ai/ha
  SETVI phytotoxicity rating: 40
[12]; 250 g ai/ha
  SETVI phytotoxicity rating: 60
[13]; 63 g ai/ha
  ABUTH phytotoxicity rating: 100
[13]; 250 g ai/ha
  ABUTH phytotoxicity rating: 100
[14]; 63 g ai/ha, rating scale 0-100
  AMARE phytotoxicity rating: 99
[14]; [21]
  AMARE phytotoxicity rating: 100
[15]; 63 g ai/ha
  IPOHE phytotoxicity rating: 100
[15]; 250 g ai/ha
  IPOHE phytotoxicity rating: 100
[16]; 63 g ai/ha
  CORN phytotoxicity rating (crop damage): 15
[16]; 250 g ai/ha
  CORN phytotoxicity rating (crop damage): 75
[17]; 63 g ai/ha
  RICE phytotoxicity rating (crop damage): 50
[17]; 250 g ai/ha
  RICE phytotoxicity rating (crop damage): 90
[18]; 63 g ai/ha, scale 0-100
  phytotoxicity rating AMARE: 100
[18]; 250 g ai/ha, scale 0-100
  phytotoxicity rating AMARE: 100
[19]; 63 g ai/ha
  phytotoxicity rating CORN (crop damage): 0
[19]; 250 g ai/ha
  phytotoxicity rating CORN (crop damage): 90
[20]; 63 g ai/ha
  phytotoxicity rating RICE (crop damage): 40
[20]; 250 g ai/ha
  phytotoxicity rating RICE (crop damage): 90
